Assay results reported in the NIST ThermoML archive (doi:10.1021/je300345m).
Numbers after ± are expanded uncertainties.

Tests used:
[1] = xn = mol fraction of the nth substance listed; conditions: Liquid, Vibrating tube method, x2 = 0
[2] = Liquid, Vibrating tube method

SMILES | mass density ([1]; 323.15 K, 100 kPa) [kg/m3] | mass density ([1]; 328.15 K, 100 kPa) [kg/m3] | mass density ([1]; 333.15 K, 100 kPa) [kg/m3] | mass density ([1]; 338.15 K, 100 kPa) [kg/m3] | mass density ([1]; 343.15 K, 100 kPa) [kg/m3] | mass density ([1]; 348.15 K, 100 kPa) [kg/m3] | mass density ([1]; 353.15 K, 100 kPa) [kg/m3] | mass density ([1]; 358.15 K, 100 kPa) [kg/m3] | mass density ([1]; 363.15 K, 100 kPa) [kg/m3] | mass density ([1]; 373.15 K, 700 kPa) [kg/m3] | mass density ([1]; 383.15 K, 700 kPa) [kg/m3] | mass density ([1]; 393.15 K, 700 kPa) [kg/m3] | mass density ([1]; 403.15 K, 700 kPa) [kg/m3] | mass density ([1]; 413.15 K, 700 kPa) [kg/m3] | mass density ([1]; 423.15 K, 700 kPa) [kg/m3] | mass density ([2]; 298.15 K, 100 kPa) [kg/m3] | mass density ([2]; 303.15 K, 100 kPa) [kg/m3] | mass density ([2]; 308.15 K, 100 kPa) [kg/m3] | mass density ([2]; 313.15 K, 100 kPa) [kg/m3] | mass density ([2]; 318.15 K, 100 kPa) [kg/m3] | further results
O [water] + CN(CCO)CCO | 988 ± 3 | 985.7 ± 3 | 983.2 ± 3 | 980.5 ± 3 | 977.7 ± 3 | 974.8 ± 3 | 971.8 ± 3 | 968.6 ± 3 | 965.3 ± 3 | 958.6 ± 3 | 951.2 ± 3 | 943.4 ± 3 | 935.1 ± 3 | 926.3 ± 3 | 917.1 ± 3 |  |  |  |  |  | 
OCCNCCO [diethanolamine] |  |  |  |  |  |  |  |  |  |  |  |  |  |  |  | 1093.6 ± 3.6 | 1090.4 ± 3.6 | 1087.1 ± 3.6 | 1083.8 ± 3.6 | 1080.6 ± 3.6 | mass density ([2]; 323.15 K, 100 kPa): 1077.4 ± 3.6 kg/m3; mass density ([2]; 328.15 K, 100 kPa): 1074.1 ± 3.6 kg/m3; mass density ([2]; 333.15 K, 100 kPa): 1070.8 ± 3.6 kg/m3; mass density ([2]; 338.15 K, 100 kPa): 1067.4 ± 3.6 kg/m3; mass density ([2]; 343.15 K, 100 kPa): 1064 ± 3.6 kg/m3; mass density ([2]; 348.15 K, 100 kPa): 1060.6 ± 3.6 kg/m3; mass density ([2]; 353.15 K, 100 kPa): 1057.2 ± 3.6 kg/m3; mass density ([2]; 358.15 K, 100 kPa): 1053.7 ± 3.6 kg/m3; mass density ([2]; 363.15 K, 100 kPa): 1050.1 ± 3.6 kg/m3; mass density ([2]; 373.15 K, 700 kPa): 1043.3 ± 3.6 kg/m3; mass density ([2]; 383.15 K, 700 kPa): 1035.5 ± 3.6 kg/m3; mass density ([2]; 393.15 K, 700 kPa): 1028.1 ± 3.6 kg/m3; mass density ([2]; 403.15 K, 700 kPa): 1020.5 ± 3.6 kg/m3; mass density ([2]; 413.15 K, 700 kPa): 1012.9 ± 3.6 kg/m3; mass density ([2]; 423.15 K, 700 kPa): 1004.8 ± 3.6 kg/m3
O [water] + OCCNCCO | 988 ± 3.5 | 985.7 ± 3.5 | 983.2 ± 3.5 | 980.5 ± 3.5 | 977.7 ± 3.5 | 974.8 ± 3.5 | 971.8 ± 3.5 | 968.6 ± 3.5 | 965.3 ± 3.5 | 958.6 ± 3.5 | 951.2 ± 3.5 | 943.4 ± 3.5 | 935.1 ± 3.5 | 926.3 ± 3.5 | 917.1 ± 3.5 |  |  |  |  |  | 
CN(CCO)CCO [N-methyldiethanolamine] |  |  |  |  |  |  |  |  |  |  |  |  |  |  |  | 1036 ± 3.1 | 1032.4 ± 3.1 | 1028.6 ± 3.1 | 1024.8 ± 3.1 | 1021 ± 3.1 | mass density ([2]; 323.15 K, 100 kPa): 1017.2 ± 3.1 kg/m3; mass density ([2]; 328.15 K, 100 kPa): 1013.3 ± 3.1 kg/m3; mass density ([2]; 333.15 K, 100 kPa): 1009.4 ± 3.1 kg/m3; mass density ([2]; 338.15 K, 100 kPa): 1005.6 ± 3.1 kg/m3; mass density ([2]; 343.15 K, 100 kPa): 1001.7 ± 3.1 kg/m3; mass density ([2]; 348.15 K, 100 kPa): 997.7 ± 3.1 kg/m3; mass density ([2]; 353.15 K, 100 kPa): 993.8 ± 3.1 kg/m3; mass density ([2]; 358.15 K, 100 kPa): 989.9 ± 3.1 kg/m3; mass density ([2]; 363.15 K, 100 kPa): 985.9 ± 3.1 kg/m3; mass density ([2]; 373.15 K, 700 kPa): 978.6 ± 3.1 kg/m3; mass density ([2]; 383.15 K, 700 kPa): 970.3 ± 3.1 kg/m3; mass density ([2]; 393.15 K, 700 kPa): 962.1 ± 3.1 kg/m3; mass density ([2]; 403.15 K, 700 kPa): 953.9 ± 3.1 kg/m3; mass density ([2]; 413.15 K, 700 kPa): 945.6 ± 3.1 kg/m3; mass density ([2]; 423.15 K, 700 kPa): 937 ± 3.1 kg/m3
